Measured values taken from PubChem BioAssay AID2060603 (Molecular Pharmacology Branch, DTP, NCI, 2025).

Test system: 422866-222-R5-J1-PDC spheroid viability
Assay: Anticancer human tumor 422866-222-R5-J1-PDC patient-derived pancreatic adenocarcinoma cell line growth inhibition [CLK]
Conditions: spheroids with HUVEC and MSC; for IC50: curve of first compound; for viability, T/C: stronger effect = lower value
Outline: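 Multi-cell-type spheroids combined patient-derived tumor cells with HUVEC endothelial cells and human mesenchymal stem cells. Paired agents were dosed in half-log steps down from about clinical Cmax, or from 10 microM where Cmax was unknown.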

[1] = second compound 0.0316 µM, first compound 0.0316 µM
[2] = second compound 0.0316 µM, first compound 0.1 µM
[3] = second compound 0.0316 µM, first compound 0.316 µM
[4] = second compound 0.0316 µM, first compound 1 µM
[5] = second compound 0.0316 µM, first compound 3.16 µM
[6] = second compound 0.0316 µM, first compound 10 µM
[7] = second compound 0.1 µM, first compound 0.0316 µM
[8] = second compound 0.1 µM, first compound 0.1 µM
[9] = second compound 0.1 µM, first compound 0.316 µM
[10] = second compound 0.1 µM, first compound 1 µM
[11] = second compound 0.1 µM, first compound 3.16 µM
[12] = second compound 0.1 µM, first compound 10 µM
[13] = second compound 0.316 µM, first compound 0.0316 µM
[14] = second compound 0.316 µM, first compound 0.1 µM
[15] = second compound 0.316 µM, first compound 0.316 µM
[16] = second compound 0.316 µM, first compound 1 µM
[17] = second compound 0.316 µM, first compound 3.16 µM
[18] = second compound 0.316 µM, first compound 10 µM
[19] = second compound 1 µM, first compound 0.0316 µM
[20] = second compound 1 µM, first compound 0.1 µM
[21] = second compound 1 µM, first compound 0.316 µM
[22] = second compound 1 µM, first compound 1 µM
[23] = second compound 1 µM, first compound 3.16 µM
[24] = second compound 1 µM, first compound 10 µM
[25] = second compound 3.16 µM, first compound 0.0316 µM
[26] = second compound 3.16 µM, first compound 0.1 µM
[27] = second compound 3.16 µM, first compound 0.316 µM
[28] = second compound 3.16 µM, first compound 1 µM
[29] = second compound 3.16 µM, first compound 3.16 µM
[30] = second compound 3.16 µM, first compound 10 µM
[31] = second compound 10 µM, first compound 0.0316 µM
[32] = second compound 10 µM, first compound 0.1 µM
[33] = second compound 10 µM, first compound 0.316 µM
[34] = second compound 10 µM, first compound 1 µM
[35] = second compound 10 µM, first compound 3.16 µM
[36] = second compound 10 µM, first compound 10 µM
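Further: spheroids exposed to agents for seven days before readout.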

In the case of `CC(=O)O[C@H]1C(=O)[C@@]2(C)[C@H]([C@H](OC(=O)c3ccccc3)[C@]3(O)C[C@H](OC(=O)[C@H](O)[C@@H](NC(=O)c4ccccc4)c4ccccc4)C(C)=C1C3(C)C)[C@]1(OC(C)=O)CO[C@@H]1C[C@@H]2O` + CN1CCN(c2cc(C(=O)Nc3cc4cc(-c5cnn(C)c5)ccc4cn3)ccn2)CC1, the IC50 (second compound 0.0316 µM) is reported as > 10000 nM, the IC50 (second compound 0.1 µM) is reported as > 10000 nM and the IC50 (second compound 0.316 µM) is reported as > 10000 nM. The IC50 (second compound 1 µM) was < 31.6 nM, the IC50 (second compound 3.16 µM) was < 31.6 nM and the IC50 (second compound 10 µM) was < 31.6 nM. The viability, T/C [1] was 72.2%, the viability, T/C [2] was 61.6% and the viability, T/C [3] was 61.4%. The viability, T/C [4] was 69.7%, the viability, T/C [5] was 78.1% and the viability, T/C [6] was 85.3%. For the same molecule, the viability, T/C [7] was 70.5%, the viability, T/C [8] was 61.9% and the viability, T/C [9] was 73.1%. The viability, T/C [10] was 81.5%, the viability, T/C [11] was 83.8% and the viability, T/C [12] was 95.4%. The viability, T/C [13] was 68.7%, the viability, T/C [14] was 73% and the viability, T/C [15] was 72.3%. For the same molecule, the viability, T/C [16] was 69.7%, the viability, T/C [17] was 72.7% and the viability, T/C [18] was 85.4%. It also gave a viability, T/C [19] of 21.8%, a viability, T/C [20] of 20.5% and a viability, T/C [21] of 18.8%. It also gave a viability, T/C [22] of 19.6%, a viability, T/C [23] of 18.7% and a viability, T/C [24] of 16.4%. The viability, T/C [25] was 6.64%, the viability, T/C [26] was 7.47% and the viability, T/C [27] was 8.49%. For the same molecule, the viability, T/C [28] was 4.12%, the viability, T/C [29] was 9.46% and the viability, T/C [30] was 8%. It also gave a viability, T/C [31] of 1.52%, a viability, T/C [32] of 1.43% and a viability, T/C [33] of 1.2%. For the same molecule, the viability, T/C [34] was 1.05%, the viability, T/C [35] was 0.96% and the viability, T/C [36] was 1.27%.
With `COc1ccc([C@@H](O)c2cc(-c3ncnc4cc(N5CCOCC5)ccc34)c(F)cc2Cl)nn1` + CN1CCN(c2cc(C(=O)Nc3cc4cc(-c5cnn(C)c5)ccc4cn3)ccn2)CC1 the IC50 (second compound 0.0316 µM) was 5480 nM, the IC50 (second compound 0.1 µM) was 5040 nM and the IC50 (second compound 0.316 µM) was 7110 nM. The IC50 (second compound 1 µM) was < 31.6 nM, the IC50 (second compound 3.16 µM) was < 31.6 nM and the IC50 (second compound 10 µM) was < 31.6 nM. The viability, T/C [1] was 116%, the viability, T/C [2] was 96.8% and the viability, T/C [3] was 88.8%. It also gave a viability, T/C [4] of 77.4%, a viability, T/C [5] of 59% and a viability, T/C [6] of 39.5%. It also gave a viability, T/C [7] of 114%, a viability, T/C [8] of 98.8% and a viability, T/C [9] of 94.3%. The viability, T/C [10] was 73.6%, the viability, T/C [11] was 56% and the viability, T/C [12] was 40.4%. The viability, T/C [13] was 98.7%, the viability, T/C [14] was 87.8% and the viability, T/C [15] was 81.4%. For the same molecule, the viability, T/C [16] was 77.7%, the viability, T/C [17] was 52.9% and the viability, T/C [18] was 48%. It also gave a viability, T/C [19] of 18.2%, a viability, T/C [20] of 18.5% and a viability, T/C [21] of 22.9%. It also gave a viability, T/C [22] of 16.7%, a viability, T/C [23] of 20.9% and a viability, T/C [24] of 19.1%. The viability, T/C [25] was 7.87%, the viability, T/C [26] was 8.87% and the viability, T/C [27] was 9.25%. It also gave a viability, T/C [28] of 8.71%, a viability, T/C [29] of 11.4% and a viability, T/C [30] of 14.6%. For the same molecule, the viability, T/C [31] was 1.27%, the viability, T/C [32] was 1.38% and the viability, T/C [33] was 1.7%. It also gave a viability, T/C [34] of 2.13%, a viability, T/C [35] of 3.04% and a viability, T/C [36] of 2.69%.
With `COc1cccc2c1C(=O)c1c(O)c3c(c(O)c1C2=O)CC(O)(C(=O)CO)CC3OC1CC(N)C(O)C(C)O1` (stereo unspecified) + CN1CCN(c2cc(C(=O)Nc3cc4cc(-c5cnn(C)c5)ccc4cn3)ccn2)CC1 the IC50 (second compound 0.0316 µM) was 109 nM, the IC50 (second compound 0.1 µM) was 174 nM and the IC50 (second compound 0.316 µM) was 220 nM. For the same molecule, the IC50 (second compound 1 µM) was < 31.6 nM, the IC50 (second compound 3.16 µM) was < 31.6 nM and the IC50 (second compound 10 µM) was < 31.6 nM. It also gave a viability, T/C [1] of 73.1%, a viability, T/C [2] of 50.2% and a viability, T/C [3] of 40.9%. The viability, T/C [4] was 28.2%, the viability, T/C [5] was 31% and the viability, T/C [6] was 36%. It also gave a viability, T/C [7] of 74%, a viability, T/C [8] of 59.4% and a viability, T/C [9] of 38.5%. For the same molecule, the viability, T/C [10] was 34.3%, the viability, T/C [11] was 39.9% and the viability, T/C [12] was 47.1%. The viability, T/C [13] was 73%, the viability, T/C [14] was 67.4% and the viability, T/C [15] was 42.1%. For the same molecule, the viability, T/C [16] was 35.8%, the viability, T/C [17] was 30.7% and the viability, T/C [18] was 46.5%. It also gave a viability, T/C [19] of 19.8%, a viability, T/C [20] of 16.7% and a viability, T/C [21] of 15.3%. For the same molecule, the viability, T/C [22] was 20.3%, the viability, T/C [23] was 38% and the viability, T/C [24] was 54.5%. The viability, T/C [25] was 8.41%, the viability, T/C [26] was 7.95% and the viability, T/C [27] was 11.9%. It also gave a viability, T/C [28] of 22.1%, a viability, T/C [29] of 33.8% and a viability, T/C [30] of 51%. For the same molecule, the viability, T/C [31] was 1.49%, the viability, T/C [32] was 1.52% and the viability, T/C [33] was 2.85%. The viability, T/C [34] was 3.41%, the viability, T/C [35] was 10.8% and the viability, T/C [36] was 13.8%.
